# Patent EP1038533A1, “MEDICINAL COMPOSITIONS FOR TREATING IMMUNODEFICIENCY DISEASES” (Nippon Kayaku Kabushiki Kaisha, priority 1997, dated 1999)
# Read-outs that look alike come from different tables or passages of the source.
# Columns and labels:
# [1] = system: HIV (human immunodeficiency virus); assay: Test Example 2: clinical administration of 15-deoxyspergualin injection to five HIV positive carriers; format: in vivo; settings: 0.15 mg/kg body weight/day i.v. 14 days per course; for fatigue (malaise) of the worst kind: 3 courses
# Description: (§1) The therapeutic effect of 15-deoxyspergualin for immunodeficiency was clinically investigated by administering the compound to HIV-infected patients. The details are shown below.
# To five (5) carriers diagnosed as HIV positive, the 15-deoxyspergualin injection was intravenously administered for consecutive 14 days in a dose of 0.15 mg/kg body weight/day. This cycle was made one course. Then, no drug period was set for 6 weeks followed by repetition with 2 courses with the same interval between the second course and the third course, as well. The CD4^+ cell count, CD4^+ /CD8^+ level and virus load, etc. were measured immediately before and after each course and 6 weeks after the completion of Course 3, respectively.
# [2] = system: HIV (human immunodeficiency virus); format: in vivo; settings: patient
# Description: as §1
# To a patient who was diagnosed as a HIV positive 1 year and 10 months ago, the 15-deoxyspergualin injection of Example 1 later described was intravenously administered for consecutive 15 days in a dose of 0.15 mg/kg body weight/day. This cycle was made one course. Then, no drug period was set for 6 weeks followed by repetition with 2 courses with the same interval between the second course and the third couse, as well.
# The CD4^+/CD8^+ level was measured immediately before and after each course and, 3 months and 2 years after the completion of Course 3, namely, 8 measurements in total.
# [3] = Case 3, Immediately before Course 3
# [4] = Case 4, 6 Weeks after completion of Course 3
# [5] = Case 4, Immediately after Course 1
# [6] = Case 4, Immediately after Course 2
# [7] = Case 4, Immediately after Course 3
# [8] = Case 4, Immediately before Course 1 (before treatment)
# [9] = Case 4, Immediately before Course 2
# [10] = Case 4, Immediately before Course 3
# [11] = Case 5, 6 Weeks after completion of Course 3
# [12] = Case 5, Immediately after Course 1
# [13] = Case 5, Immediately after Course 2
# [14] = Case 5, Immediately after Course 3
# [15] = Case 5, Immediately before Course 1 (before treatment)
# [16] = Case 5, Immediately before Course 2
# [17] = Case 5, Immediately before Course 3
# [18] = throughout the entire period of the treatment
structure (smiles),measurement,setting,value
N=C(N)NCCCCCCC(=O)NC(O)C(=O)NCCCCNCCCN (stereo not drawn) [15-deoxyspergualin],Virus loads,"[1]; Case 3, Immediately before Course 2",11000 particles/ml
same,CD4^+ T cell counts,[1]; [3],650 µL⁻¹
same,CD4^+/CD8^+ levels,[1]; [3],0.84
same,Virus loads,[1]; [3],8000 particles/ml
same,CD4^+ cell counts,[1]; [4],910 µL⁻¹
same,CD4^+/CD8^+ levels,[1]; [4],0.92
same,Virus loads,[1]; [4],13000 particles/ml
same,CD4^+ cell counts,[1]; [5],710 µL⁻¹
same,CD4^+/CD8^+ levels,[1]; [5],0.75
same,Virus loads,[1]; [5],20000 particles/ml
same,CD4^+ cell counts,[1]; [6],760 µL⁻¹
same,CD4^+/CD8^+ levels,[1]; [6],0.85
same,Virus loads,[1]; [6],18000 particles/ml
same,CD4^+ cell counts,[1]; [7],850 µL⁻¹
same,CD4^+/CD8^+ levels,[1]; [7],0.94
same,Virus loads,[1]; [7],15000 particles/ml
same,CD4^+ cell counts,[1]; [8],640 µL⁻¹
same,CD4^+/CD8^+ levels,[1]; [8],0.73
same,Virus loads,[1]; [8],25000 particles/ml
same,CD4^+ cell counts,[1]; [9],770 µL⁻¹
same,CD4^+/CD8^+ levels,[1]; [9],0.83
same,Virus loads,[1]; [9],20000 particles/ml
same,CD4^+ cell counts,[1]; [10],840 µL⁻¹
same,CD4^+/CD8^+ levels,[1]; [10],0.90
same,Virus loads,[1]; [10],17000 particles/ml
same,CD4^+ cell counts,[1]; [11],900 µL⁻¹
same,CD4^+/CD8^+ levels,[1]; [11],0.90
same,Virus loads,[1]; [11],6000 particles/ml
same,CD4^+ cell counts,[1]; [12],750 µL⁻¹
same,CD4^+/CD8^+ levels,[1]; [12],0.80
same,Virus loads,[1]; [12],6000 particles/ml
same,CD4^+ cell counts,[1]; [13],820 µL⁻¹
same,CD4^+/CD8^+ levels,[1]; [13],0.83
same,Virus loads,[1]; [13],6500 particles/ml
same,CD4^+ cell counts,[1]; [14],890 µL⁻¹
same,CD4^+/CD8^+ levels,[1]; [14],0.87
same,Virus loads,[1]; [14],6000 particles/ml
same,CD4^+ cell counts,[1]; [15],780 µL⁻¹
same,CD4^+/CD8^+ levels,[1]; [15],0.79
same,Virus loads,[1]; [15],6000 particles/ml
same,CD4^+ cell counts,[1]; [16],810 µL⁻¹
same,CD4^+/CD8^+ levels,[1]; [16],0.81
same,Virus loads,[1]; [16],7000 particles/ml
same,CD4^+ cell counts,[1]; [17],880 µL⁻¹
same,CD4^+/CD8^+ levels,[1]; [17],0.85
same,Virus loads,[1]; [17],6500 particles/ml
same,fatigue (malaise) of the worst kind,"[1]; Cases 1, 3 and 4",improved
same,fatigue (malaise) of the worst kind,[1]; Cases 2 and 5,no change
same,CD4^+/CD8^+ level,"[2]; 0.15 mg/kg body weight/day i.v. 15 days per course, 2 Years after completion of Course 3",0.90
same,CD4^+/CD8^+ level,"[2]; 0.15 mg/kg body weight/day i.v. 15 days per course, 3 Months after completion of Course 3",0.93
same,CD4^+/CD8^+ level,"[2]; 0.15 mg/kg body weight/day i.v. 15 days per course, Immediately after Course 1",0.72
same,CD4^+/CD8^+ level,"[2]; 0.15 mg/kg body weight/day i.v. 15 days per course, Immediately after Course 2",0.75
same,CD4^+/CD8^+ level,"[2]; 0.15 mg/kg body weight/day i.v. 15 days per course, Immediately after Course 3",0.84
same,CD4^+/CD8^+ level,"[2]; 0.15 mg/kg body weight/day i.v. 15 days per course, Immediately before Course 1 (before treatment)",0.68
same,CD4^+/CD8^+ level,"[2]; 0.15 mg/kg body weight/day i.v. 15 days per course, Immediately before Course 2",0.78
same,CD4^+/CD8^+ level,"[2]; 0.15 mg/kg body weight/day i.v. 15 days per course, Immediately before Course 3",0.87
same,decrease of CD4^+/CD8^+ level immediately after Courses 2 and 3 versus immediately before the courses,"[2]; 0.15 mg/kg body weight/day i.v. 15 days per course, attributed to weak bone marrow suppression",0.03
same,complaint of fatigue,"[2]; 0.15 mg/kg body weight/day i.v. 15 days, after Course 1 was finished",disappeared completely
same,leucocyte count,[2]; [18],approximately 6200
same,other side effect,[2]; [18],no other side effect was observed at all
